{"source": "paper PMC5638327", "about": "“Comparison of bioavailability and antiplatelet action of ticagrelor in patients with ST-elevation myocardial infarction and non-ST-elevation myocardial infarction: A prospective, observational, single-centre study” (PLoS ONE, 2017)", "key": {"platelet reactivity": {"test_system": "platelet reactivity", "test": "Platelet reactivity by the VASP assay after ticagrelor loading dose", "type": "in vivo, human (patients with myocardial infarction)", "settings": "median [interquartile range]; for time to achieve platelet inhibition below the cut-off value for HPR (VASP): HPR = platelet reactivity index >50%", "experimental": "Consecutive STEMI and NSTEMI patients admitted to the study site (Cardiology Department, Dr. A. Jurasz University Hospital, Bydgoszcz, Poland) were screened for eligibility. After admission to the study centre, confirmation of the initial diagnosis of STEMI or NSTEMI, and provision of a written informed consent to participate in the trial, all study participants received an oral 300 mg LD of plain aspirin (Polpharma SA, Starogard Gdański, Poland) and 180 mg LD ticagrelor in integral tablets with 250 mL tap water. Subsequently, within 15 minutes of ticagrelor LD, all patients underwent coronary angiography followed by PCI as required. During the periprocedural period, all study participants received unfractionated heparin in body weight adjusted dose according to the European Society of Cardiology (ESC) recommendations. Plasma concentrations of ticagrelor and its active metabolite, as well as their antiplatelet effect, were evaluated according to the sampling schedule employed at our centre in previous PK/PD study (pre-treatment, 0.5 h, 1 h, 2 h, 3 h, 4 h, 6 h and 12 h post ticagrelor LD).\nBlood samples for PK/PD evaluation were obtained from an 18-gauge cannula inserted into one of the forearm veins. The first 5 mL blood was discarded to avoid spontaneous platelet activation. In each patient specimens were collected at the eight pre-defined time. Detailed description of blood sample processing has been published in the study protocol (S1 File).\nPlatelet reactivity was assessed using VASP and Multiplate. The VASP assay (Biocytex, Inc., Marseille, France) was used in all study participants, while Multiplate (Roche Diagnostics International Ltd., Rotkreuz, Switzerland) was used in all except in those treated with glycoprotein (GP) IIb/IIIa receptor inhibitors. Pharmacodynamic evaluation was performed according to the manufacturers' instructions. HPR was defined as platelet reactivity index >50% for the VASP assay and AUC >46 units (U) for Multiplate. […]\nTable 1 Inclusion and exclusion criteria of the PINPOINT study\nInclusion criteria Exclusion criteria\n▸ Provision of informed consent prior to any ▸ Treatment with ticlopidine, clopidogrel, prasugrel or ticagrelor within study-specific procedure 14 days before the study enrolment\n▸ Diagnosis of STEMI or NSTEMI ▸ Hypersensitivity to ticagrelor\n▸ Men or non-pregnant women ▸ Current treatment with oral anticoagulant or chronic therapy with low-molecular-weight heparin\n▸ Provision of informed consent for angiography ▸ Active bleeding […]\n▸ History of intracranial haemorrhage\n▸ Fibrinolytic treatment during the index event\n▸ Recent gastrointestinal bleeding (within 30 days)\n▸ History of coagulation disorders\n▸ History of moderate or severe hepatic impairment\n▸ History of major surgery or severe trauma (within 3 months)\n▸ Second or third degree atrioventricular block during screening for […]\n▸ Patient requiring dialysis\n▸ Manifest infection or inflammatory state\n▸ Killip class III or IV during screening for eligibility\n▸ Current therapy with strong CYP3A inhibitors or strong CYP3A […]\nNSTEMI, non-ST-elevation myocardial infarction; PCI, percutaneous coronary intervention; STEMI, ST-elevation myocardial infarction. […]\nAssessment of pharmacodynamics ticagrelor, β-blockers, statins and ACE inhibitors or angio-Platelet VASP assay (Biocytex, Marseille, France) will be tensin II receptor blockers, if not contraindicated. applied to all study participants at all predeﬁned time Morphine will be used at the discretion of the ambulance points. MEA (Roche Diagnostics International, Rotkreuz, staff and the attending physician. The type of implanted Switzerland) will be used at all predeﬁned time points stent and choice of the access site for coronary invasive ( ﬁgure 1) for all study participants with the exception of procedure (radial or femoral ) will be at the discretion of those treated with glycoprotein IIb/IIIa (GP IIb/IIIa) the operator. During the periprocedural period, all study […]"}, "platelet inhibition": {"test_system": "platelet inhibition", "parameters": "method as in earlier work", "settings": "2 hours after ticagrelor LD; ref 18 20 25 (of the protocol); cited from earlier work"}}}
{"smiles": "CCCSc1nc(N[C@@H]2C[C@H]2c2ccc(F)c(F)c2)c2nnn([C@@H]3C[C@H](OCCO)[C@@H](O)[C@H]3O)c2n1", "note": "[ticagrelor]", "values": [{"measurement": "Platelet reactivity (VASP)", "setting": "platelet reactivity; NSTEMI, 0.5 h after 180 mg ticagrelor LD", "result": "57.0 [30.2–89.4] %"}, {"measurement": "Platelet reactivity (VASP)", "setting": "platelet reactivity; NSTEMI, 1 h after 180 mg ticagrelor LD", "result": "40.8 [23.7–69.2] %"}, {"measurement": "Platelet reactivity (VASP)", "setting": "platelet reactivity; NSTEMI, 3 h after 180 mg ticagrelor LD", "result": "32.2 [14.7–38.7] %"}, {"measurement": "Platelet reactivity (VASP)", "setting": "platelet reactivity; NSTEMI, 4 h after 180 mg ticagrelor LD", "result": "21.1 [17.5–43.1] %"}, {"measurement": "time to achieve platelet inhibition below the cut-off value for HPR (VASP)", "setting": "platelet reactivity; NSTEMI", "result": "1.0 [0.5–2.0] h"}, {"measurement": "Platelet reactivity (VASP)", "setting": "platelet reactivity; STEMI, 0.5 h after 180 mg ticagrelor LD", "result": "83.1 [74.5–87.8] %"}, {"measurement": "Platelet reactivity (VASP)", "setting": "platelet reactivity; STEMI, 1 h after 180 mg ticagrelor LD", "result": "80.7 [40.4–90.5] %"}, {"measurement": "Platelet reactivity (VASP)", "setting": "platelet reactivity; STEMI, 3 h after 180 mg ticagrelor LD", "result": "45.0 [26.4–80.9] %"}, {"measurement": "Platelet reactivity (VASP)", "setting": "platelet reactivity; STEMI, 4 h after 180 mg ticagrelor LD", "result": "36.5 [22.2–69.7] %"}, {"measurement": "time to achieve platelet inhibition below the cut-off value for HPR (VASP)", "setting": "platelet reactivity; STEMI", "result": "2.5 [1.0–6.0] h"}, {"measurement": "patients with STEMI with inadequate platelet inhibition", "setting": "platelet inhibition", "result": "≤ 60", "unit": "%"}]}
